{"source": "patent US20060293264A1", "about": "“STAT3 decoy oligonucleotides and uses therefor” (priority 2004, published 2006)", "key": {"PCI-15B cells": {"tested_on": "PCI-15B cells", "test": "Gossypol dose response, MTT assays and cell counting", "assay_type": "cell-based", "conditions": "72 h, day 3 after treatment", "protocol": "In FIG. 7, PCI-15B cells were treated with 0, 0.003, 0.03, 3, and 30 μM gossypol. After 3 days, MTT assays and cell counting experiments were performed. […] Bars indicate standard error. […] The STAT3 decoy will be combined with gossypol to determine the antitumor efficacy of the combination treatment."}, "p53-responsive element": {"tested_on": "p53-responsive element", "test": "p53-Luciferase reporter gene assay in UM-22B SCCHN cells", "assay_type": "cell-based", "conditions": "UM-22B p53-Luc, 2 μg transfected, 24 hrs", "protocol": "FIG. 8 depicts the inhibition of reporter gene expression from a p53-responsive element in SCCHN cells. An SCCHN cell line, UM-22B, was used to generate a stable cell line expressing a p53-Luciferase (p53-Luc) reporter gene (The p53-Luc plasmid carrying 14 repeats of p53 transcription recognition sequence: 5'-[…] ID NO: 30)), was obtained from Stratagene, Catalog number: 219085-51). The cells were transfected with 2 μg of the STAT3 decoy or the control mutant decoy. At 24 hrs after transfection, luciferase (Luc) activity was measured and normalized to the total amount of protein according to standard methods."}, "GAS-responsive element": {"tested_on": "GAS-responsive element", "test": "pGAS-Luc reporter gene assay in UM-22B SCCHN cells", "assay_type": "cell-based", "conditions": "UM-22B pGAS-Luc, 2 μg transfected, 24 hrs, IFN-γ stimulation", "protocol": "FIG. 9 depicts the inhibition of reporter gene expression from GAS-responsive element in SCCHN cells. An SCCHN cell line, UM-22B, was used to generate a stable cell line expressing a pGAS-Luc reporter gene (pGAS-Luc plasmid carrying 4 repeats of GAS sequence: [NT] ID NO: 31), was obtained from Stratagene, Catalog number: 219091-51). The cells were transfected with 2 μg of the STAT3 decoy or the control mutant decoy. At 24 hrs after transfection, luciferase activity was measured and normalized to the total amount of protein."}, "STAT1": {"target": "T1, STAT1 (Homo sapiens, UniProt P42224)", "T1 construct": "Nuclear protein extracts of PCI-15B cells, prepared according to standard methods, were used for the EMSA; endogenous in cells; host or cells: PCI-15B cells (nuclear extract)", "T1 sequence (P42224 2-750 limits assumed)": "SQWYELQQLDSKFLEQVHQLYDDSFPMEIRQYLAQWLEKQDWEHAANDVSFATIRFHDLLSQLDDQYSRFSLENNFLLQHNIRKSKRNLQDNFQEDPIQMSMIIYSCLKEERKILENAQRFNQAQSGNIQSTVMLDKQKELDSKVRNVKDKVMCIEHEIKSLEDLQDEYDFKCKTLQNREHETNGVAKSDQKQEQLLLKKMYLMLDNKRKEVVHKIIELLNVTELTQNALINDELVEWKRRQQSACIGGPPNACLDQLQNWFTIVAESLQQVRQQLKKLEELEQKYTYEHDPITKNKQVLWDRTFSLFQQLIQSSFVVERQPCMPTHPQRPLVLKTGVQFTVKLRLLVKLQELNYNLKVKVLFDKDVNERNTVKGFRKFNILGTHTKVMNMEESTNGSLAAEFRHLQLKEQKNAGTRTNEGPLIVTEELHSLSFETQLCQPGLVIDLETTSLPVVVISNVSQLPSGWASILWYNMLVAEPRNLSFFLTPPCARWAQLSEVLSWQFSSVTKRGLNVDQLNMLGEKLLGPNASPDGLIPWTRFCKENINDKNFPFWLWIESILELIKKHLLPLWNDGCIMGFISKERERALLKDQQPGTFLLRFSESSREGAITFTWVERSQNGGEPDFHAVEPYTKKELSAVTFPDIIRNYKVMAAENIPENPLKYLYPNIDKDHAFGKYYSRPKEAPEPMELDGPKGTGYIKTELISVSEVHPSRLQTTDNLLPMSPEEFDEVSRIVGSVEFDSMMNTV", "test": "EMSA of STAT1 binding to the STAT3 decoy, PCI-15B nuclear extracts", "conditions": "supershift", "protocol": "FIG. 10 depicts binding of STAT 1 to the STAT3 decoy in an electrophoretic mobility shift assay (EMSA). Nuclear protein extracts of PCI-15B cells, prepared according to standard methods, were used for the EMSA. The specificity of STAT1 or STAT3 binding to the STAT3 decoy was determined by supershifting with STAT1- or STAT3-specific antibodies, or both. The experiment has been repeated more than 3 times."}, "STAT3": {"target": "T2, STAT3 (Homo sapiens, UniProt P40763)", "T2 construct": "Whole cell extracts were prepared and EMSAs performed on 4% native polyacrylamide gels; endogenous in cells; host or cells: whole cell extracts", "T2 sequence (P40763 2-770 limits assumed)": "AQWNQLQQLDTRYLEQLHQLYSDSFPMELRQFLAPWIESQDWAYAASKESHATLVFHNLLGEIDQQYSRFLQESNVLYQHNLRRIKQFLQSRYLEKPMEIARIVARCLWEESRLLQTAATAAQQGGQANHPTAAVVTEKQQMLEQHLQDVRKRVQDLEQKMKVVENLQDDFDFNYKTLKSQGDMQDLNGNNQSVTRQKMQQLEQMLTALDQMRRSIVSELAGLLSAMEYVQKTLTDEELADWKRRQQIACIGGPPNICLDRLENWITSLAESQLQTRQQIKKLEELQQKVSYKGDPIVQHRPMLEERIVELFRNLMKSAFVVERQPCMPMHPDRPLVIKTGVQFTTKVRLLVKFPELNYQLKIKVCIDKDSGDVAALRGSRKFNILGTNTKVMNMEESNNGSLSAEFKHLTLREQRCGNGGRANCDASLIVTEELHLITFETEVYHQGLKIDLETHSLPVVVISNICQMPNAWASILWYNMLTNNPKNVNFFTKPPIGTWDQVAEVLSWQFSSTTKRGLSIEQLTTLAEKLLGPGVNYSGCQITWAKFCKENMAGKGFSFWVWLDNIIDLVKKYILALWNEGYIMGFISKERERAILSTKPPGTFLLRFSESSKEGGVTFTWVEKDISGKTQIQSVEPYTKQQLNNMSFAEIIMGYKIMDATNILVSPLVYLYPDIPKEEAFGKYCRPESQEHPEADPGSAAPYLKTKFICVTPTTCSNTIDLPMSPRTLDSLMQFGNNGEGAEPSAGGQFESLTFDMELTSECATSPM", "test": "EMSA of STAT3 decoy and derivative decoys, relative binding to STAT3", "protocol": "Derivative decoys were identified by electrophoretic mobility shift assay, performed as described herein. Table 1 describes a number of STAT3 decoy derivatives along with their relative binding to STAT3.\nElectrophoretic Mobility Shift Assay (EMSA). Whole cell extracts were prepared and EMSAs performed on 4% native polyacrylamide gels as described (Xi, S., et al. J Biol Chem, 278: 31574-31583, 2003 and Wong, P., etal. Mol Cell Biol, 14. 914-922, 1994). STAT3 activation was evaluated by using binding reactions with 20 μg of extracted protein, and radiolabeled high-affinity serum inducible element (hSIE) duplex oligonucleotide (Wagner et al., EMBO J. 9(13):4477-4484 (1990)). Quantification of the STAT3 signal was performed by scanning the SIF-A band using a Molecular Dynamics Personal Densitometer SI and IMAGEQUANT software. […] For supershift experiments, extracts were preincubated with STAT3 polyclonal antibody (C-20, Santa Cruz Biotechnology). Gel shift bands were quantified by densitometry and the Molecular Analyst software (AlphaDigidoc 1000, Alpha-Innotech) with normalization of each band to the positive control lysate run on that gel as described previously for STAT3 activation determinations (Grandis, J. R. et al. Proc Natl Acad Sci USA, 97: 4227-4232., 2000)."}}, "data": [{"molecule": "Cc1cc2c(C(C)C)c(O)c(O)c(C=O)c2c(O)c1-c1c(C)cc2c(C(C)C)c(O)c(O)c(C=O)c2c1O", "note": "[gossypol, 2,2′-bis-(Formyl-1,6,7-trihydroxy-5-isopropyl-3-methylnaphthalene)]", "values": [{"measurement": "IC50", "setting": "PCI-15B cells", "result": 297, "unit": "nM"}]}, {"molecule": "mutant control decoy: double-stranded oligonucleotide 5′-CATTTCCCTTAAATC-3′, 3′-GTAAAGGGAATTTAG-5′; same sequence as Mutant 3 of Table 1 [reference compound]", "values": [{"measurement": "p53 reporter activity", "setting": "p53-responsive element", "result": "not"}, {"measurement": "reporter gene expression from a GAS-responsive element (STAT1 reporter activity)", "setting": "GAS-responsive element", "result": "not"}, {"measurement": "binding to STAT1", "setting": "STAT1", "result": "not"}]}, {"molecule": "longer sequence: 5′-AGCTTGTCGACATTTCCCGTAAATCGTCGAG-3′, 3′-…-5′; longer decoy initially examined (nucleic acid, listed as Homo sapiens, listed as DNA, chemistry not given here, longer decoy initially examined) sense: AGCTTGTCGACATTTCCCGTAAATCGTCGAG antisense: CTCGACGATTTACGGGAAATGTCGACAAGCT", "values": [{"measurement": "blocking STAT3 activation", "setting": "STAT3", "result": "effective"}]}]}
